From US6180621A, “Method and treatment using 1-methylcarbapenem derivatives as an anti-helicobacter pylori agent” (Sankyo Company, Limited, priority 1996, dated 2001)
≈ marks a conversion by molar mass, not a printed value. Like-named read-outs stand apart in the source and are kept apart here.

Assays:
[1] = tested on: helicobacter pylori 9470 strain; test: Therapeutic effects for nude mouse infected with helicobacter pylori (viable microbe cell number, CFU/stomach); type: in vivo; conditions: oral, once a day for 4 days, nude mice
Description: Therapeutic effects for nude mouse infected with helicobacter pylon Bacteria (helicobacter pylori 9470 strain) used for the test, which were cultured for 48 hours in a 2%-fetal-calf-serum-added brucella broth, were centrifuged. After removal of the supernatant, the residue was re-suspended in a 1/10 amount of a brucella broth. The resulting suspended solution was orally administered to each of three to five nude mice in an amount of […] per mouse. 10 days after the infection, administration of a medicament was started. A 0.5% tragacanth suspension of a medicament was orally administered for 4 days through an oral catheter at a dose of 0.3 ml/mouse, once a day. On the day after the final administration, the stomach was extirpated, homogenized and then diluted. […] The significant difference of Medicament B(2), Medicament C(1) or C(2) is p<0.01 (vs the control group).

helicobacter pylori [2] = test: In vitro activity against helicobacter pylori (MIC), agar plate; type: cell-based; conditions: for MIC: Helicobacter pylori, 72 h, read-out: minimum inhibitory concentration (MIC)
Description: In vitro activity against helicobacter pylon (MIC; μg/ml)
Helicobacter pylori (H. pylori) from storage was smeared on a 7%-equine-defibrinated-blood-added brain heart infusion agar (BHIA) plate and cultured at 37° C. for 72 hours under microaerophilic and wet conditions. The colonies thus grown were picked and suspended in physiological saline to prepare a culture solution of 10^8 CFU/ml (viable microbe cell number per ml). The resulting culture solution was diluted to 10 to 50-fold with physiological saline, and one spot (about 10 μl) of the solution was inoculated on each of medicament-containing and medicament-free BHIA plates. Each of the plates was cultured at 37° C. for 72 hours under microaerophilic and wet conditions and the minimum inhibitory concentration (MIC: μg/ml) at which the growth of the colonies was inhibited was measured.

helicobacter pylori [3] = conditions: background, reported; cited from earlier work
[4] = H. pylori strain 9470, 37° C., 72 hours, microaerophilic, BHIA plate
[5] = H. pylori strain 9472, 37° C., 72 hours, microaerophilic, BHIA plate
[6] = H. pylori strain 9824, 37° C., 72 hours, microaerophilic, BHIA plate
[7] = H. pylori strain 9828, 37° C., 72 hours, microaerophilic, BHIA plate
[8] = H. pylori strain 9474, 37° C., 72 hours, microaerophilic, BHIA plate

| Compound | MIC (helicobacter pylori [2]; [4]) [ng/mL] | MIC (helicobacter pylori [2]; [5]) [ng/mL] | MIC (helicobacter pylori [2]; [6]) [ng/mL] | MIC (helicobacter pylori [2]; [7]) [ng/mL] | effect against helicobacter pylori (helicobacter pylori [3]) | also measured |
| --- | --- | --- | --- | --- | --- | --- |
| C[C@@H](O)[C@H]1C(=O)N2C(C(=O)OCOC(=O)C(C)(C)C)=C(S[C@H]3CNC(=O)C3)[C@H](C)[C@H]12 [Compound 4, pivaloyloxymethyl (1R,5S,6S)-2-[(4R)-2-oxo-4-pyrrolidinylthio]-6-[(1R)-1-hydroxyethyl]-1-methyl-1-carbapen-2-em-3-carboxylate] | – | – | – | – | – | significant difference (p) vs the control group, viable microbe cell number (CFU/stomach) ([1]; 1 mg/kg): < 0.01; significant difference (p) vs the control group, viable microbe cell number (CFU/stomach) ([1]; 10 mg/kg): < 0.01 |
| C[C@@H](O)[C@H]1C(=O)N2C(C(=O)O)=C(S[C@@H]3CC(=O)N(C)C3)[C@H](C)[C@H]12 [Compound 2] | ≤ 0.6 | ≤ 6 | ≤ 6 | ≤ 6 | – | – |
| CN(C)C1C(=O)C(C(N)=O)=C(O)C2(O)C(=O)C3=C(O)c4c(O)cccc4C(C)(O)C3CC12 (stereo not shown) [tetracycline] | – | – | – | – | effective against helicobacter pylori | – |
| CC1(C)S[C@@H]2[C@H](NC(=O)[C@H](N)c3ccc(O)cc3)C(=O)N2[C@H]1C(=O)O [AMPC, amoxicillin] | 12 (≈ 0.0328 µM) | 25 (≈ 0.0684 µM) | 390 (≈ 1.07 µM) | 200 (≈ 0.547 µM) | effective against helicobacter pylori | MIC (helicobacter pylori [2]; [8]): 50 ng/mL (≈ 0.137 µM) |
| CC[C@H]1OC(=O)[C@H](C)[C@@H](O[C@H]2C[C@@](C)(OC)[C@@H](O)[C@H](C)O2)[C@H](C)[C@@H](O[C@@H]2O[C@H](C)C[C@H](N(C)C)[C@H]2O)[C@](C)(OC)C[C@@H](C)C(=O)[C@H](C)[C@@H](O)[C@]1(C)O [CAM, clarithromycin] | 6 (≈ 0.00802 µM) | 6 (≈ 0.00802 µM) | 1500 (≈ 2.01 µM) | 6250 (≈ 8.36 µM) | effective against helicobacter pylori | significant difference (p) vs the control group, viable microbe cell number (CFU/stomach) ([1]; 10 mg/kg): < 0.01; MIC (helicobacter pylori [2]; [8]): 25 ng/mL (≈ 0.0334 µM) |
| C[C@@H](O)[C@H]1C(=O)N2C(C(=O)[O-])=C(S[C@H]3CC(=O)N(C)C3)[C@H](C)[C@H]12.[Na+] [Compound 3, sodium (1R,5S,6S)-2-[(4S)-1-methyl-2-oxo-4-pyrrolidinylthio]-6-[(1R)-1-hydroxyethyl]-1-methyl-1-carbapen-2-em-3-carboxylate] | – | – | – | – | – | minimum inhibitory concentration (MIC) (helicobacter pylori [2]; [5]): ≤ 6 ng/mL; minimum inhibitory concentration (MIC) (helicobacter pylori [2]; [6]): ≤ 6 ng/mL; minimum inhibitory concentration (MIC) (helicobacter pylori [2]; [7]): ≤ 6 ng/mL; MIC (helicobacter pylori [2]): ≤ 6 ng/mL |
| O=C([O-])CC(O)(CC(=O)[O-])C(=O)[O-].[Bi+3] [bismuth citrate] | – | – | – | – | effective against helicobacter pylori | – |
| C[C@@H](O)[C@H]1C(=O)N2C(C(=O)[O-])=C(S[C@H]3CNC(=O)C3)[C@H](C)[C@H]12.[Na+] [Compound 1, sodium (1R,5S,6S)-2-[(4R)-2-oxo-4pyrrolidinylthio]-6-[(1R)-1-hydroxyethyl]-1-methyl-1-carbapen-2-em-3-carboxylate] | – | – | – | – | – | minimum inhibitory concentration (MIC) (helicobacter pylori [2]; [5]): ≤ 6 ng/mL; minimum inhibitory concentration (MIC) (helicobacter pylori [2]; [8]): ≤ 6 ng/mL; minimum inhibitory concentration (MIC) (helicobacter pylori [2]; [6]): ≤ 6 ng/mL; minimum inhibitory concentration (MIC) (helicobacter pylori [2]; [7]): ≤ 6 ng/mL; MIC (helicobacter pylori [2]): ≤ 6 ng/mL |
| Cc1ncc([N+](=O)[O-])n1CCO [metronidazole] | – | – | – | – | effective against helicobacter pylori | – |
